Each structure is given as a SMILES string.

T1 sequence (O00574 whole entry): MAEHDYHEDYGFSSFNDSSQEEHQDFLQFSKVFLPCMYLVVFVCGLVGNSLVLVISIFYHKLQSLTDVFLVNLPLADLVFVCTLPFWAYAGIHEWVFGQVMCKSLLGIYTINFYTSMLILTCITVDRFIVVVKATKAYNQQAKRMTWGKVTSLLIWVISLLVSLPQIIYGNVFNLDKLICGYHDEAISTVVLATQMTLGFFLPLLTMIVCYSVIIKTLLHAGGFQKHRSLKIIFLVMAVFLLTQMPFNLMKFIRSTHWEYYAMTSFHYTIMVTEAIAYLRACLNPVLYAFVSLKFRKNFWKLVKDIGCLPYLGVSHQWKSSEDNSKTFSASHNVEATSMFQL

The experiment concerns the target T1, human CXCR6 (Homo sapiens, UniProt O00574).
T1 construct: expressed in transfected cells
In words: Radioligand Binding Assay (125I-CXCL16 displacement). The conditions noted are these: L1.2 cells stably transfected with human CXCR6 cDNA, 0.1 nM 125I-CXCL16, 4° C., three-hour incubation; read-out: Potency (IC50). An outline of the steps: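 L1.2 cells stably expressing human CXCR6 incubated 3 h at 4 °C in HBSS/0.1% BSA with 0.1 nM 125I-CXCL16 and graded compound concentrations. Bound radioactivity collected by filtration and counted; IC50 from 3-parameter nonlinear regression.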
By IC50 is commonly meant the concentration that gives 50% inhibition. In the case of `CCOc1cc(NC(=O)[C@@H](N)C2CCCC2)ccc1S(=O)(=O)Nc1cccc(OC(F)(F)F)c1` [Example 1.463], the IC50 is ≤ 200 nM. The figure for `CCOc1cc(NC(=O)C2CCCN(C(C)=O)C2)ccc1S(=O)(=O)Nc1cccc(OC(F)(F)F)c1` (stereo not drawn) [Example 1.465] is 2000 to 20000 nM. Turning to `CCOc1cc(NC(=O)C(O)c2ccc(C)cc2)ccc1S(=O)(=O)Nc1cccc(OC(F)(F)F)c1` (stereo not drawn) [Example 1.466], the IC50 fell in the range of 200 to 750 nM.

With `Cc1cc(NC(=O)C(F)(F)F)ccc1S(=O)(=O)Nc1cccc(C(F)(F)F)c1` [Example 1.467], the half-inhibitory concentration (IC50) was 2000 to 20000 nM.

Regarding `CCOc1cc(NC(=O)C2CCC[C@H]2O)ccc1S(=O)(=O)Nc1cccc(OC(F)(F)F)c1` (stereo partly drawn) [Example 1.468], the half-maximal inhibitory concentration (IC50) was in the range of 200 to 750 nM. As to `COc1cc(NC(=O)c2ccnn2C)ccc1S(=O)(=O)Nc1ccc(Cl)c(OC(F)(F)F)c1` [Example 1.469], the half-maximal inhibitory concentration (IC50) is ≤ 200 nM. The same measure for `CCOc1cc(NC(=O)C2CCS(=O)(=O)CC2)ccc1S(=O)(=O)Nc1cccc(OC(F)(F)F)c1` [Example 1.470]: 2000 to 20000 nM; for `COc1cc(NC(=O)[C@@H]2CCCNC2)ccc1S(=O)(=O)Nc1cccc(C(F)(F)F)c1` [Example 1.471]: 2000 to 20000 nM; for `COc1cc(NC(=O)C2NC3CCC2C3)ccc1S(=O)(=O)Nc1cccc(C(F)(F)F)c1` (stereo not drawn) [Example 1.472]: 2000 to 20000 nM.

Turning to `CCOc1cc(NC(=O)C(CO)c2ccccc2)ccc1S(=O)(=O)Nc1cccc(OC(F)(F)F)c1` (stereo not drawn) [Example 1.473], the half-inhibitory concentration (IC50) is ≤ 200 nM. Regarding `CCOc1cc(NC(=O)CC2(O)CCCCC2)ccc1S(=O)(=O)Nc1cccc(OC(F)(F)F)c1` [Example 1.474], the IC50 was 200 to 750 nM.

On to `CCOc1cc(NC(=O)C2CCNC(=O)C2)ccc1S(=O)(=O)Nc1cccc(OC(F)(F)F)c1` (stereo not drawn) [Example 1.475], for which the IC50 fell in the range of 2000 to 20000 nM.

For the compound `CCOCCOCCC(C(=O)O)C(=O)Nc1ccc(S(=O)(=O)Nc2cccc(OC(F)(F)F)c2)c(OCC)c1` (stereo not drawn) [Example 1.476], the IC50 lay in the range of 200 to 750 nM.

For the compound `Cc1cc(NC(=O)C2CCCOC2)ccc1S(=O)(=O)Nc1cccc(C(F)(F)F)c1` (stereo not drawn) [Example 1.478], the half-inhibitory concentration (IC50) lay in the range of 750 to 2000 nM. Consider `CCOc1cc(NC(=O)C(C(=O)O)C2CCCC2)ccc1S(=O)(=O)Nc1cccc(OC(F)(F)F)c1` (stereo not drawn) [Example 1.479], for which the concentration for half-maximal inhibition (IC50) was ≤ 200 nM. Take `CCOc1cc(NC(=O)C2CC=CCC2)ccc1S(=O)(=O)Nc1cccc(OC(F)(F)F)c1` (stereo not drawn) [Example 1.480]: the half-maximal inhibitory concentration (IC50) lay in the range of 200 to 750 nM. With `CC(=O)N[C@H](C(=O)Nc1ccc(S(=O)(=O)Nc2cccc(OC(F)(F)F)c2)c(C)c1)c1ccccc1` [Example 1.481], the IC50 is ≤ 200 nM. Consider `CC(C)[C@H](CO)C(=O)Nc1ccc(S(=O)(=O)Nc2cccc(OC(F)(F)F)c2)c(C#N)c1` [Example 1.482], for which the IC50 is ≤ 200 nM.

With `CCOc1cc(NC(=O)C(C(=O)O)C2CCCCC2)ccc1S(=O)(=O)Nc1cccc(OC(F)(F)F)c1` (stereo not drawn) [Example 1.484], the IC50 was ≤ 200 nM. As to `CCOc1cc(NC(=O)CC(O)c2nccs2)ccc1S(=O)(=O)Nc1cccc(OC(F)(F)F)c1` (stereo not drawn) [Example 1.485], the IC50 fell in the range of 200 to 750 nM. The same measure for `Cc1cc(NC(=O)c2cccn2C)ccc1S(=O)(=O)Nc1cccc(C(F)(F)F)c1` [Example 1.486]: 750 to 2000 nM; for `CCc1cc(NC(=O)C(NC(C)=O)C(C)C)ccc1S(=O)(=O)Nc1cccc(OC(F)(F)F)c1` (stereo not drawn) [Example 1.487]: ≤ 200 nM; for `CCOc1cc(NS(=O)(=O)c2ccc(NC(=O)[C@@H](CO)C(C)C)cc2OCC)ccc1Cl` [Example 1.488]: 200 to 750 nM. On to `COc1cc(NC(=O)c2ccnn2C)ccc1S(=O)(=O)Nc1ccc(Cl)c(C(F)(F)F)c1` [Example 1.489], for which the IC50 lay in the range of 750 to 2000 nM. Take `CC(=O)Nc1cc(C)c(S(=O)(=O)Nc2cccc(C(F)(F)F)c2)c(C)c1` [Example 1.490]: the IC50 lay in the range of 2000 to 20000 nM. Regarding `COc1cc(NC(=O)c2ccnn2C)ccc1S(=O)(=O)Nc1ccc(C#N)cc1` [Example 1.491], the IC50 lay in the range of 2000 to 20000 nM. In the case of `CCOc1cc(NC(=O)[C@@H](O)C(C)CC)ccc1S(=O)(=O)Nc1cccc(OC(F)(F)F)c1` (stereo partly drawn) [Example 1.492], the IC50 was ≤ 200 nM. Consider `CCOc1cc(NC(=O)C(O)c2cccnc2)ccc1S(=O)(=O)Nc1cccc(OC(F)(F)F)c1` (stereo not drawn) [Example 1.493], for which the 50% inhibitory concentration (IC50) lay in the range of 750 to 2000 nM. For the compound `CCOc1cc(NC(=O)[C@@H](CO)C2CC2)ccc1S(=O)(=O)Nc1cccc(C(F)(F)F)c1` [Example 1.494], the half-inhibitory concentration (IC50) is ≤ 200 nM. As to `COc1cc(NC(=O)[C@@H](CO)C(C)C)ccc1S(=O)(=O)Nc1ccc(C)c(C(F)(F)F)c1` [Example 1.495], the IC50 fell in the range of 200 to 750 nM. On to `CCCOc1cc(NC(=O)[C@@H](CO)c2ccccc2)ccc1S(=O)(=O)Nc1cccc(CC(F)(F)F)c1` [Example 1.496], for which the IC50 is ≤ 200 nM. The figure for `COc1cc(NC(=O)C2CCCC2)ccc1S(=O)(=O)Nc1cccc(C(F)(F)F)c1` [Example 1.497] is 750 to 2000 nM; for `CCOc1cc(NC(=O)[C@@H](CO)c2ccccc2)ccc1S(=O)(=O)Nc1ccc(C)c(CC)c1` [Example 1.498] it is ≤ 200 nM; for `CCOc1cc(NC(=O)[C@H]2CCOC[C@H]2COC)ccc1S(=O)(=O)Nc1cccc(OC(F)(F)F)c1` [Example 1.499] it is ≤ 200 nM. For `Cc1cc(NC(=O)C2CCOCC2)ccc1S(=O)(=O)Nc1cccc(C(F)(F)F)c1` [Example 1.500], the concentration for half-maximal inhibition (IC50) was in the range of 200 to 750 nM. The same measure for `Cc1cc(NC(=O)c2cncs2)ccc1S(=O)(=O)Nc1cccc(C(F)(F)F)c1` [Example 1.501]: 200 to 750 nM; for `Cc1cc(NC(=O)c2ccnn2C)cc(F)c1S(=O)(=O)Nc1cccc(OC(F)(F)F)c1` [Example 1.502]: 200 to 750 nM. As to `CCOc1cc(NC(=O)[C@@H](NC(=O)C(F)(F)F)C(C)C)ccc1S(=O)(=O)Nc1cccc(OC(F)(F)F)c1` [Example 1.503], the half-maximal inhibitory concentration (IC50) is ≤ 200 nM. Consider `Cc1cc(NC(=O)c2ccnn2C)cc(C)c1S(=O)(=O)Nc1cccc(C(F)(F)F)c1` [Example 1.504], for which the concentration for half-maximal inhibition (IC50) was 200 to 750 nM. Take `CCOc1cc(NC(=O)[C@@H]2CC=CC[C@H]2O)ccc1S(=O)(=O)Nc1cccc(OC(F)(F)F)c1` [Example 1.505]: the IC50 is ≤ 200 nM. As to `COc1cc(NC(=O)C2C3CCC(C3)N2C(=O)OC(C)(C)C)ccc1S(=O)(=O)Nc1cccc(C(F)(F)F)c1` (stereo not drawn) [Example 1.506], the IC50 was in the range of 750 to 2000 nM.

On to `CCOc1cc(NC(=O)[C@@H](NC(C)=O)C(C)C)ccc1S(=O)(=O)Nc1cccc(C(F)(F)F)c1` [Example 1.507], for which the concentration for half-maximal inhibition (IC50) is ≤ 200 nM.

As to `CCOc1cc(NC(=O)C2CC3C=CC2O3)ccc1S(=O)(=O)Nc1cccc(OC(F)(F)F)c1` (stereo not drawn) [Example 1.508], the half-inhibitory concentration (IC50) is ≤ 200 nM.

In the case of `CCCc1cc(NC(=O)[C@@H](CO)c2ccccc2)ccc1S(=O)(=O)Nc1cccc(OC(F)(F)F)c1` [Example 1.509], the concentration for half-maximal inhibition (IC50) is ≤ 200 nM. With `CCOc1cc(NC(=O)c2ccc[n+]([O-])c2)ccc1S(=O)(=O)Nc1cccc(OC(F)(F)F)c1` [Example 1.510], the IC50 is ≤ 200 nM. With `CCOc1cc(NC(=O)C(O)c2c(F)cccc2F)ccc1S(=O)(=O)Nc1cccc(OC(F)(F)F)c1` (stereo not drawn) [Example 1.511], the IC50 was ≤ 200 nM. As to `CCOc1cc(NC(=O)CC(C)(O)C(F)(F)F)ccc1S(=O)(=O)Nc1cccc(OC(F)(F)F)c1` (stereo not drawn) [Example 1.512], the 50% inhibitory concentration (IC50) lay in the range of 200 to 750 nM. Consider `CCOc1cc(NC(=O)[C@@H]2CCOCC[C@@H]2O)ccc1S(=O)(=O)Nc1cccc(OC(F)(F)F)c1` [Example 1.513], for which the IC50 lay within 200 to 750 nM.

The record behind these values is US20230339851A1, “CXCR6 SULFONAMIDE COMPOUNDS” (CHEMOCENTRYX, INC., priority 2022, published 2023).
